Source: ChEMBL document CHEMBL4811247, “Small molecule and macrocyclic pyrazole derived inhibitors of myeloperoxidase (MPO)” (Bioorg Med Chem Lett, 2021)

Key:
[1] = target: T1, Myeloperoxidase (Homo sapiens, UniProt P05164)
T1 sequence (P05164 whole entry): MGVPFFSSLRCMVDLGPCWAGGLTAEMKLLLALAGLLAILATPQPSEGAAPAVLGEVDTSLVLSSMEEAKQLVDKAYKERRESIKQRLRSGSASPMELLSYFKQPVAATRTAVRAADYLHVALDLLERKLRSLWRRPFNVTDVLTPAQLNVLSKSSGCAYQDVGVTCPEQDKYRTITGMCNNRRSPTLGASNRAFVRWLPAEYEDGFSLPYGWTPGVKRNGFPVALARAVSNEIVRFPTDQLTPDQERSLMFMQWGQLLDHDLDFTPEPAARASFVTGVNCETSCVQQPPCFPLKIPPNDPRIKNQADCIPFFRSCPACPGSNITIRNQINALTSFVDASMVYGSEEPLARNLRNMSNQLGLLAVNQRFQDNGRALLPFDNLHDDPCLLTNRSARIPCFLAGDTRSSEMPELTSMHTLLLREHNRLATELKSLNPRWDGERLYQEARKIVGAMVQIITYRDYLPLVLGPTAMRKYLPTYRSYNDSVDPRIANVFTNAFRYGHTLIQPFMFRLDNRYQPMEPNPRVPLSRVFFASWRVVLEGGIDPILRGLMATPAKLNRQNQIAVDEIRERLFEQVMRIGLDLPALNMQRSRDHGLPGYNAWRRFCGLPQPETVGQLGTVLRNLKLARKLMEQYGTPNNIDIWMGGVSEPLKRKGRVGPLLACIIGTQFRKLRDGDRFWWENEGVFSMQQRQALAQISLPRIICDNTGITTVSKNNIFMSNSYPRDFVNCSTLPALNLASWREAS
Description: Inhibition of MPO (unknown origin) chlorination activity incubated for 10 mins followed by NaCl addition by aminophenyl fluorescein assay

[2] = Protein binding in human plasma; assay type: ADME, cell-free; conditions: read-out: PPB (converted)
[3] = Half life in mouse at 1 mg/kg, iv; assay type: ADME, organism-based; conditions: in vivo
[4] = Clearance in mouse at 1 mg/kg, iv; assay type: ADME, organism-based; conditions: in vivo
[5] = Permeability of the compound by PAMPA method; assay type: ADME
[6] = Volume of distribution at steady state in mouse at 1 mg/kg, iv; assay type: ADME, organism-based; conditions: in vivo, read-out: Vdss
[7] = Half life in human liver microsomes; assay type: ADME, Microsome
[8] = target: CYP3A4 (Homo sapiens, UniProt P08684); assay: Ratio of IC50 for time dependent inhibition of CYP3A4 (unknown origin) measured at 5 mins to IC50 for time dependent inhibition of CYP3A4 (unknown origin) measured at 30 mins; conditions: read-out: Ratio IC50
Sequence of CYP3A4 (P08684 whole entry): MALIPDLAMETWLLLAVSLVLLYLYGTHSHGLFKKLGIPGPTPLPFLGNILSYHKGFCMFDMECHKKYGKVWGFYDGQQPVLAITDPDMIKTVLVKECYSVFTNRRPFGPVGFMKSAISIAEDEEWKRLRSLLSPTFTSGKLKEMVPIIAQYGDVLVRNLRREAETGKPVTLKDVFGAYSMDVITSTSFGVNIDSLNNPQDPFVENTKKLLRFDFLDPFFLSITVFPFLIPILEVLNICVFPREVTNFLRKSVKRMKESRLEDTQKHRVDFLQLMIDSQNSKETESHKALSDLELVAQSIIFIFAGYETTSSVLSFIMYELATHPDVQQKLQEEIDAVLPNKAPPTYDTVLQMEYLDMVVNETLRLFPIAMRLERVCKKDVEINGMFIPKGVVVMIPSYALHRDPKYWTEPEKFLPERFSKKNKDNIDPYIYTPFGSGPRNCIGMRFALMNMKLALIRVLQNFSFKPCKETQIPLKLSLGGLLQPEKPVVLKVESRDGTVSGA

[9] = target: T2, Thyroid peroxidase (Homo sapiens, UniProt P07202); assay: (§1) Inhibition of C-terminal hexaHis-tagged TPO (unknown origin) expressed in Trichoplusia ni insect cells using 3-iodo tyrosine as substrate preincubated for 10 mins followed by substrate and H2O2 addition and further incubated for 15 mins
T2 sequence (P07202 whole entry): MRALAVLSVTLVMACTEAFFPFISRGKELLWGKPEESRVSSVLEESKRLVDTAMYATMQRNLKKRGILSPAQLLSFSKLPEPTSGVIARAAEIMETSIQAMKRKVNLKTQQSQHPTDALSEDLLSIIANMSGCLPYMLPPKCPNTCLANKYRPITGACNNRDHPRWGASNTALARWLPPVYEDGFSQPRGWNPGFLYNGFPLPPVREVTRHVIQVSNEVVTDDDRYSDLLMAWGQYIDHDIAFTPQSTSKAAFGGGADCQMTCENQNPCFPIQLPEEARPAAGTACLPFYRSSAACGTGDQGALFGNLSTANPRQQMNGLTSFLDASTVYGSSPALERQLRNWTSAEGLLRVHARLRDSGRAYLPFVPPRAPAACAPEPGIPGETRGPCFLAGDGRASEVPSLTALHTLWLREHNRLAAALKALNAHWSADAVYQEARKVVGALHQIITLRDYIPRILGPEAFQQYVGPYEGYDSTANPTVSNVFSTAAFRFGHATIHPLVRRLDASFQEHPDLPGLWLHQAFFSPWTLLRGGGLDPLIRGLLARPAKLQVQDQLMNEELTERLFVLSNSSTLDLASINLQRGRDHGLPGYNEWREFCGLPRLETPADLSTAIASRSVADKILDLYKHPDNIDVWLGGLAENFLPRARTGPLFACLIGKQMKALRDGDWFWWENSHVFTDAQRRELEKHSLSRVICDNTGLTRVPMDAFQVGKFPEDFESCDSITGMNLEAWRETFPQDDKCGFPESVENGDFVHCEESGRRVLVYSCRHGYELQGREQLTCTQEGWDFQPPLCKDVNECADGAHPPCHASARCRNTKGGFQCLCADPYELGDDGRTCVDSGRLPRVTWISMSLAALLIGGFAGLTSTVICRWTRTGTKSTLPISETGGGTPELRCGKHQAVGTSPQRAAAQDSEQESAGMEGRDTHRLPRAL

[10] = target: T1, Myeloperoxidase; assay: Inhibition of PMA-induced MPO in human Neutrophil incubated for 3 mins by luminometry; assay type: tissue-based
[11] = target: Cytochrome P450 3A4 (Homo sapiens, UniProt P08684); assay: Time dependent inhibition of CYP3A4 (unknown origin) measured at 30 mins; assay type: ADME
Sequence of Cytochrome P450 3A4 (P08684 whole entry): as the sequence (P08684 whole entry) above

[12] = species: Homo sapiens; assay: as §1, with “Selectivity ratio” for “Inhibition”, “of IC50 for MPO (unknown origin) chlorination activity incubated for 10 mins followed by NaCl addition by aminophenyl fluorescein assay to IC50 for” for “of”

IC50 [1]	IC50 [9]	IC50 [11]	SMILES	IC50 shift [8]	further results
100 nM	21000 nM	3300 nM	Nc1cc(Cc2ccn(Cc3cccc(C4CCNCC4)c3)n2)c2nn[nH]c2n1	4.3	fraction unbound [2]: 0.2; half-life [3]: 1.2 h; clearance [4]: 2.6 mL/min/kg; permeability [5]: Impermeable; Vd [6]: 0.2 L/kg; half-life [7]: > 2 h; IC50 [10]: 2400 nM
36 nM	–	–	Nc1cc(C2CCNCc3cccc(c3)Oc3cccc(c3)Cn3cc2cn3)c2nn[nH]c2n1 (stereo not drawn)	–	–
26 nM	1700 nM	140 nM	Nc1cc(Cc2ccn(Cc3cccc(Oc4cccc5c4CNC5)c3)n2)c2nn[nH]c2n1	3.3	–
58 nM	6700 nM	7000 nM	Nc1cc(Cc2ccn(Cc3ccc4c(c3)CCNC4)n2)c2nn[nH]c2n1	2.8	Ratio IC50 [12]: 120; fraction unbound [2]: 0.5; half-life [7]: > 2 h; IC50 [10]: 5000 nM
14 nM	–	–	Nc1cc(C2CCNCCc3cccc(c3)Oc3cccc(c3)Cn3cc2cn3)c2nn[nH]c2n1 (stereo not drawn)	–	–
55 nM	1100 nM	17 nM	Nc1cc(Cc2ccn(Cc3cccc(-c4ccccc4)c3)n2)c2nn[nH]c2n1	2.8	–
8 nM	–	–	Nc1cc(C2CCNCc3cccc(c3)OCc3cccc(c3)Cn3cc2cn3)c2nn[nH]c2n1 (stereo not drawn)	–	–
5 nM	–	–	Nc1cc([C@H]2CCN[C@H]3C[C@H](Cc4ccccc4)[C@@H](C3)Oc3cccc(c3)Cn3cc2cn3)c2nn[nH]c2n1	–	–
17 nM	–	–	Nc1cc(C2CCNCCc3cccc(c3)OCc3cccc(c3)Cn3cc2cn3)c2nn[nH]c2n1 (stereo not drawn)	–	–
54 nM	2000 nM	210 nM	Nc1cc(Cc2ccn(-c3ccccn3)n2)c2nn[nH]c2n1	3.2	–
31 nM	–	–	Nc1cc(C2CCNC3CCC(CC3)COc3cccc(c3)Cn3cc2cn3)c2nn[nH]c2n1 (stereo not drawn)	–	–
52 nM	1100 nM	40 nM	Nc1cc(Cc2ccn(Cc3ccc4ccccc4c3)n2)c2nn[nH]c2n1	2.4	–
7 nM	–	–	Nc1cc(C2CCNC34CCC(c5ccccc5)(CC3)[C@H](C4)Oc3cccc(c3)Cn3cc2cn3)c2nn[nH]c2n1 (stereo partly drawn)	–	–
53 nM	700 nM	110 nM	Nc1cc(Cc2ccn(-c3ccc(F)cc3)n2)c2nn[nH]c2n1	3.3	–
120 nM	2300 nM	310 nM	Nc1cc(Cc2ccn(Cc3ccccc3)n2)c2nn[nH]c2n1	3.2	–
29 nM	–	–	Nc1cc(C2CCNCC(=O)N(CCc3ccccc3)Cc3cccc(c3)Cn3cc2cn3)c2nn[nH]c2n1 (stereo not drawn)	–	–
55 nM	640 nM	210 nM	Nc1cc(Cc2ccn(-c3ccccc3)n2)c2nn[nH]c2n1	2.7	–
44 nM	1100 nM	11 nM	Nc1cc(Cc2ccn(Cc3cccc(Oc4ccccc4)c3)n2)c2nn[nH]c2n1	2.9	–
46 nM	14000 nM	13000 nM	Nc1cc(Cc2ccn(Cc3cccc(O[C@H]4CCNC4)c3)n2)c2nn[nH]c2n1	1.6	–
85 nM	710 nM	7.1 nM	Nc1cc(Cc2ccn(-c3cccc(-c4ccccc4)c3)n2)c2nn[nH]c2n1	2.4	–
26 nM	–	–	Nc1cc(C2CCNCC3(CCCC3)COc3cccc(c3)Cn3cc2cn3)c2nn[nH]c2n1 (stereo not drawn)	–	–
140 nM	1800 nM	210 nM	Nc1cc(Cc2ccn(Cc3ccc4cnccc4c3)n2)c2nn[nH]c2n1	4.1	–
25 nM	–	–	Nc1cc(C2CCNCc3cccc(c3)COc3cccc(c3)Cn3cc2cn3)c2nn[nH]c2n1 (stereo not drawn)	–	–
39 nM	1900 nM	37 nM	Nc1cc(Cc2ccn(Cc3cccc(Cc4ccccc4)c3)n2)c2nn[nH]c2n1	2.8	–
21 nM	–	–	Nc1cc(C2CCNCCc3cccc(c3)-c3cccc(c3)Cn3cc2cn3)c2nn[nH]c2n1 (stereo not drawn)	–	–
